According to US7754720B2, “Pyridazine compound and use thereof” (priority 2006, dated 2010):
Values after ≈ are worked out from the molar mass of the structure shown. Read-outs that look alike come from different tables or passages of the source.

What was measured:
[1] = test system: HCV genotype 2a (J6/JFH-Rluc) virus; test: Huh-7 cells chronically infected with HCV genotype 2a reporter virus, luciferase assay; type: cell-based; settings: Hepatitis C virus, Huh-7, 72 h, read-out: EC50, HCV-2a chronically infected cell culture model
Description: (§1) The antiviral activity of compound (1) against HCV genotype 2a was tested in cells chronically infected with the genotype 2a virus as well as in cells replicating a subgenomic 2a replicon. Huh-7 cells containing chronically replicating HCV genotype 2a (J6/JFH-Rluc) virus or subgenomic replicons were cultured with compound (1) or 2′CMeA for 3 days in the absence of human serum albumin. After cultivation, the amount of luciferase in 2a-virus containing cells and HCV NS3 protease activity in the 2a replicon-containing cells was determined using Promega's luciferase assay and a novel time-resolved fluorescence assay, respectively.

[2] = Intrinsic and pH solubility profile; type: physicochemical
[3] = Cytotoxicity, CellTiter-Glo Luminescence Cell Viability assay, MH4; settings: mouse, MH4 cells (HCV replicon-containing)
Description: (§2) Compound (1) was evaluated for its cytotoxicity in a variety of cell types including HCV replicon-containing cell lines (Huh-7, SL3 and MH4) and non-replicon-containing cell lines (HepG2, MT4), using a CellTiter-Glo Luminescence Cell Viability assay (Promega).

log P = type: physicochemical; settings: product of example 1b
HCV replicon = test: Anti-HCV replicon activity compared with prior art compound of formula (4); type: cell-based, hepatitis C virus
Text: The anti-HCV replicon activity of compound (1) was compared to that of a prior art (WO 05/063744) compound, the compound of formula (4)

[4] = test system: HCV 2a subgenomic replicon; test: HCV genotype 2a subgenomic replicon in Huh-7 cells, NS3 protease activity by time-resolved fluorescence; type: cell-based, hepatitis C virus; settings: compared with genotypes 1a and 1b
Description: as §1

[5] = Cytotoxicity, CellTiter-Glo Luminescence Cell Viability assay, SL3; settings: human, SL3 cells (HCV replicon-containing)
Description: as §2

in vitro [6] = settings: human
Description: as §2

HCV replicon cells = test: In vitro combination study with IFN-α in replicon cells (MacSynergy); type: cell-based, hepatitis C virus; settings: MacSynergy analysis
Description: Pegylated interteron-α (PEG-IFN-α), in combination with ribavirin, represents the current standard of care for HCV-infected patients. In vitro combination studies of compound (1) and IFN-α were performed in replicon cells. Data was analyzed using the MacSynergy template developed by Prichard and Shipman.

[7] = in vivo
Text: (§3) A randomized, double-blind, placebo controlled trial was designed to evaluate the safety/tolerability, phamacokinetics and antiviral activity of single (in Part A) and multiple (in Part B) doses of Compound (1) (oleic acid solution, above) in subjects chronically infected with HCV genotype 1 (GT-1) without decompensated cirrhosis.
(§4) In completed Part A, five successive cohorts of 6 subjects were randomized (5:1) to receive single ascending doses of Compound 1 (40, 120, 240, 240-with food, or 480 mg) or placebo. In ongoing Part B, four successive cohorts of 12 subjects are randomized (10:2) to receive multiple ascending doses of Compound 1 (40 mg BID, 120 mg BID, 240 mg QD, 240 mg BID) or placebo, over 8 days.

pKa = type: physicochemical; settings: product of example 1b
[8] = test system: HCV genotype 1a (H77/neo) replicon; test: HCV genotype 1a (H77/neo) replicon, quantitative real-time PCR assay; type: cell-based; settings: Hepatitis C virus, 72 h, 3 days
Description: (§5) HCV genotype 1b (Con-1/lucneo) and 1a (H77/neo) replicon cells were incubated with serial dilutions of compound (1) 2′C-methyl adenosine (2′CMeA) or IFNα for 3 days in the absence or presence of 40 mg/mL human serum albumin (HSA).

[9] = Phase-1 first-in-human trial, pharmacokinetics; settings: in vivo
Text: as §3, §4

in vitro [10] = settings: human; remark: listed apart in the source
Description: as §2

[11] = test system: HCV genotype 1b (Con-1/lucneo) replicon; test: microbe, parasite or virus in culture; type: cell-based; settings: Hepatitis C virus
Description: as §5

[12] = Cytotoxicity, CellTiter-Glo Luminescence Cell Viability assay, Huh-7 lucneo; settings: human, Huh-7 lucneo cells (HCV replicon-containing)
Description: as §2

physchem = type: physicochemical; settings: pH 6.4, fassif

Fc1ccccc1-c1nc2ccn(Cc3ccc(-c4ccc(C(F)(F)F)cc4C(F)(F)F)nn3)cc-2n1 [Compound (1), 5-({6-[2,4-bis(trifluoromethyl)phenyl]pyridazin-3-yl}methyl)-2-(2-fluorophenyl)-5H-imidazo[4,5-c]pyridine]
EC50 [1]: 2900 nM
pH solubility profile at pH 7.3 ([2]; geometric mean (3 lots), pH 7.3): 0.7 micrograms/ml
solubility ([2]; product of example 1b): 0.7 µg/mL (≈ 1.35 µM)
CC50 [3]: > 50 µM
logP (log P): 2.8
potency relative to the compound of formula (4) (HCV replicon): about 330 times
activity against genotype 2a [4]: substantially less active
CC50 [5]: > 50 µM
CC50 (in vitro [6]): > 50 µM
interaction with IFN-α in combination (HCV replicon cells): additive interaction
Grade 3 or 4 treatment emergent laboratory abnormalities ([7]; human): no Grade 3 or 4 treatment emergent laboratory abnormalities
most common adverse event [7]: headache
serious or treatment-limiting adverse events [7]: no serious or treatment-limiting adverse events
severity of adverse events [7]: All AEs were mild in severity, with the exception of one moderate headache
tolerability of single doses [7]: well tolerated
pKa (pKa): 5.8
EC50 [8]: 3.6 nM
half-life [9]: 600 to 900 min
increase of systemic exposure with a high fat meal [9]: approximately 2 fold
CC50 (in vitro [10]): > 50 µM
EC50 ([11]; 72 h, read-out: EC50 HCV 1b-lucneo 40 mg/mL HSA, 3 days, presence of 40 mg/mL human serum albumin): 11 nM
EC50 ([11]; 72 h, 3 days, absence of human serum albumin, read-out: EC50 HCV 1b-lucneo (subgenomic replicon)): 0.6 nM
EC50 ([11]; Huh-7, read-out: EC50, Huh-7 cells replicating an HCV-1b subgenomic replicon): 0.6 nM
EC50 ([11]; read-out: EC50 in HCV-1b and HCV-1a replicons): 0.62 to 3.6 nM
CC50 [12]: > 50 µM
solubility (physchem): 19.1 µg/mL (≈ 36.9 µM)
